The target of the experiment is hPAD4 enzyme (Homo sapiens, UniProt Q9UM07). Briefly: RFMS Assay 1 (rapid-fire mass spectrum PAD4 inhibition assay, BAEE substrate). The following applies: 5 nM hPAD4 enzyme, 250 μM BAEE, 30 mins compound and enzyme preincubation at 37° C., 90 min enzyme/substrate reaction. The experiment is classed as biochemical. On the procedure: Compounds were solubilized in 100% DMSO to achieve a 10 mM compound concentration. Compound stock solutions were stored at RT. A series of dilutions were prepared in DMSO and mixed 8 times with 20 μL mixing volume. Final top concentration of compound in the assay is 50 μM. Final assay conditions were as follows: • Reaction volume: 26 μl • Assay buffer: 25 mM hepes, pH 7.5, 5 mM NaCl, 1 mM DTT, 0.2 mg/ml BSA, 0.01% CHAPS, 50 μM Calcium, and 5 μM TPEN • Final concentrations: 5 nM hPAD4 enzyme, 250 μM BAEE, and 0.5% DMSO • Total incubation time: 30 mins compound and enzyme preincubation at 37° C., 90 min enzyme/substrate reaction, 30 min reaction with phenyl glyoxal at 37° C. • Stop solution: 40 μl 5% TCA in ACN
0.13 μL of compound solution was added to 13 μL of 10 nM PAD4 in assay buffer. After 30 min 13 μl of 500 μM of BAEE was added in 25 mM hepes, pH 7.5, 5 mM NaCl, 1 mM DTT, 0.2 mg/ml BSA, 0.01% CHAPS, 50 µM Calcium, […] was added and the reaction incubated for 90 min at 37° C. The enzymatic reaction was quenched by addition of 15 μl of 6.1N TCA, 100% Final Concentration is 20%, 35 μl of 8.5 mM phenyl glyoxal (final concentration 4 mM) is then added and the reaction is incubated for 30 min at 37° C.
After 30 minutes the plates are spun down to remove all precipitate. The enzyme reaction was quenched with an equal volume of methanol containing internal standard (modified citrulline). Samples were loaded onto the Rapid Fire RF300 system (Agilent) wherein they were first sipped for 1000 ms and then directly loaded to a C18 separations cartridge using a mixture of acetonitrile containing 0.01% formic acid for 3000 ms desalting. The flow rate of the mobile phase was 1.5 ml/min. Once the samples were eluted from the cartridge, a mobile phase of acetonitrile containing 0.01% formic acid was used to move the samples into the mass spectrometer for 4000 ms at a flow rate of 1.25 ml/min/Sciex AP15500 triple quadrupole mass spectrometer (Applied Biosystems) equipped with ESI was used to analyze the peptidyl citrulline and internal standard ions.
MRM transition of product and internal standard were monitored at m/z 424.5 to 350.4 and m/z 293 to 247 respectively. The dwell time for each transition was set at 200 ms, and the ESI voltage was used at 5500 with a source temperature of 400° C. Extracted ion peaks for each transition were integrated using the Rapid Fire Integrator software. Peak area of analyte was normalized with internal standard.).

By IC50 is commonly meant the concentration that inhibits the measured activity by half. Low values mean greater potency, high ones weaker potency.

hPAD4 enzyme, sequence (Q9UM07 whole entry): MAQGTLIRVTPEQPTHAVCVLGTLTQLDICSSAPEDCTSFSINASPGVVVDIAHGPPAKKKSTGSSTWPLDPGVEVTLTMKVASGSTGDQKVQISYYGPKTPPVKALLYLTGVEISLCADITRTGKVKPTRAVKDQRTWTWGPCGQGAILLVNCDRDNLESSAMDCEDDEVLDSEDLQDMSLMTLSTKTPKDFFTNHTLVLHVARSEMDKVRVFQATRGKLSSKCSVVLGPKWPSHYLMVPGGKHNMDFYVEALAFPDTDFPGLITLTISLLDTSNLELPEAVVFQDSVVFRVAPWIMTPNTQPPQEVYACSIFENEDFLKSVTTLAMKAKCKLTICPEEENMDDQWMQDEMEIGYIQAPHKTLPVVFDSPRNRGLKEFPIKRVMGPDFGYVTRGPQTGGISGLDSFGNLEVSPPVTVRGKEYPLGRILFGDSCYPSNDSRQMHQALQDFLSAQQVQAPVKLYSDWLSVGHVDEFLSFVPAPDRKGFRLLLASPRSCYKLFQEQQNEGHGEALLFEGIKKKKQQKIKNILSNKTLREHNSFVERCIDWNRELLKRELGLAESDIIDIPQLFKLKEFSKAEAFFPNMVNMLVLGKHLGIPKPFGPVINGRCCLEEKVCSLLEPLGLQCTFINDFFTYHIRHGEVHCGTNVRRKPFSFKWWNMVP

The compound `C[C@@H](Cn1ccnc1)Oc1cccc2cc(-c3nc4cc5c(nc4n3C)CCN(C[C@H](N)CF)C5=O)n(CC3CC3)c12` [Example 63, 2-(7-(((S)-1-(1H-imidazol-1-yl)propan-2-yl)oxy)-1-(cyclopropylmethyl)-1H-indol-2-yl)-7-((S)-2-amino-3-fluoropropyl)-3-methyl-3,5,6,7-tetrahydro-8H-imidazo[4,5-b][1,6]naphthyridin-8-one] registered an IC50 of 11 to 100 nM.
As to `CC(C(F)Oc1cccc2cc(-c3nc4cc5c(nc4n3C)CCN(C[C@H](N)CF)C5=O)n(CC3CC3)c12)n1ccnc1` (single isomer, unassigned) [Example 78d], the IC50 lay within 11 to 100 nM.
The result for `Cn1c(-c2cc3cccc(NC(=O)Cn4ccnc4)c3n2CC2CC2)nc2cc3c(nc21)CCN(C[C@H](N)CF)C3=O` [Example 100, (S)—N-(2-(7-(2-amino-3-fluoropropyl)-3-methyl-8-oxo-5,6,7,8-tetrahydro-3H-imidazo[4,5-b][1,6]naphthyridin-2-yl)-1-(cyclopropylmethyl)-1H-indol-7-yl)-2-(1H-imidazol-1-yl)acetamide] reads 501 to 1000 nM; that for `COc1cccc2cc(-c3nc4cc5c(nc4n3C)CCN(C[C@H](N)CF)C5=O)n(CCOC(F)F)c12` [Example 6, (S)-7-(2-amino-3-fluoropropyl)-2-(1-(2-(difluoromethoxy)ethyl)-7-methoxy-1H-indol-2-yl)-3-methyl-3,5,6,7-tetrahydro-8H-imidazo[4,5-b][1,6]naphthyridin-8-one], 101 to 500 nM.
The result for `Cn1c(-c2cc3cccc(OCCc4cn[nH]c4)c3n2CC2CC2)nc2cc3c(nc21)CCN(C[C@H](N)CF)C3=O` [Example 50, (S)-2-(7-(2-(1H-pyrazol-4-yl)ethoxy)-1-(cyclopropylmethyl)-1H-indol-2-yl)-7-(2-amino-3-fluoropropyl)-3-methyl-3,5,6,7-tetrahydro-8H-imidazo[4,5-b][1,6]naphthyridin-8-one] reads not above 10 nM; that for `Cn1c(-c2cc3cccc(OC[C@H]4CNS(=O)(=O)C4)c3n2CC2CC2)nc2cc3c(nc21)CCN(C[C@H](N)CF)C3=O` [Example 52, 7-((S)-2-amino-3-fluoropropyl)-2-(1-(cyclopropylmethyl)-7-(((R)-1,1-dioxidoisothiazolidin-4-yl)methoxy)-1H-indol-2-yl)-3-methyl-3,5,6,7-tetrahydro-8H-imidazo[4,5-b][1,6]naphthyridin-8-one], 11 to 100 nM; that for `C[C@H](Cn1cncc1F)Oc1cccc2cc(-c3nc4cc5c(nc4n3C)CCN(C[C@H](N)CF)C5=O)n(CC3CC3)c12` [Example 69, 7-((S)-2-amino-3-fluoropropyl)-2-(1-(cyclopropylmethyl)-7-(((R)-1-(5-fluoro-1H-imidazol-1-yl)propan-2-yl)oxy)-1H-indol-2-yl)-3-methyl-3,5,6,7-tetrahydro-8H-imidazo[4,5-b][1,6]naphthyridin-8-one], 11 to 100 nM.
With `COc1cccc2cc(-c3nc4cc5c(nc4n3C)CCN(C[C@H]3COCCN3)C5=O)n(CCOC(F)F)c12` [Example 28, (S)-2-(1-(2-(difluoromethoxy)ethyl)-7-methoxy-1H-indol-2-yl)-3-methyl-7-(morpholin-3-ylmethyl)-3,5,6,7-tetrahydro-8H-imidazo[4,5-b][1,6]naphthyridin-8-one] the figure was 501 to 1000 nM; with `COc1cccc2cc(-c3nc4cc5c(nc4n3C)CCN(C[C@H](N)CF)C5=O)n(CC(F)F)c12` [Example 3, (S)-7-(2-amino-3-fluoropropyl)-2-(1-(2,2-difluoroethyl)-7-methoxy-1H-indol-2-yl)-3-methyl-3,5,6,7-tetrahydro-8H-imidazo[4,5-b][1,6]naphthyridin-8-one], 101 to 500 nM; with `Cn1c(-c2cc3cccc(OC(F)Cn4cnc(F)c4)c3n2CC2CC2)nc2cc3c(nc21)CCN(C[C@H](N)CF)C3=O` (single isomer, unassigned) [Example 73b], not above 10 nM.
In turn, `C[C@@H](COc1cccc2cc(-c3nc4cc5c(nc4n3C)CCN(C[C@H](N)CF)C5=O)n(CC3CC3)c12)n1cncc1C#N` [Example 88, 1-((S)-1-((2-(7-((S)-2-amino-3-fluoropropyl)-3-methyl-8-oxo-5,6,7,8-tetrahydro-3H-imidazo[4,5-b][1,6]naphthyridin-2-yl)-1-(cyclopropylmethyl)-1H-indol-7-yl)oxy)propan-2-yl)-1H-imidazole-5-carbonitrile] displayed an IC50 of 101 to 500 nM.
Consider `CC(C(F)Oc1cccc2cc(-c3nc4cc5c(nc4n3C)CCN(C[C@H](N)CF)C5=O)n(CC3CC3)c12)n1ccnc1` (single isomer, unassigned) [Example 78b], for which the IC50 is not above 10 nM.
With `C[C@H](O)C(=O)N1CCC(c2cccc3cc(-c4nc5cc6c(nc5n4C)CCN(C[C@H](N)CF)C6=O)n(CC4CC4)c23)CC1` [Example 32, 7-((S)-2-amino-3-fluoropropyl)-2-(1-(cyclopropylmethyl)-7-(1-((S)-2-hydroxypropanoyl)piperidin-4-yl)-1H-indol-2-yl)-3-methyl-3,5,6,7-tetrahydro-8H-imidazo[4,5-b][1,6]naphthyridin-8-one] the figure was 101 to 500 nM; with `Cn1c(-c2cc3cccc(OCCc4ccncc4)c3n2CC2CC2)nc2cc3c(nc21)CCN(C[C@H](N)CF)C3=O` [Example 57, (S)-7-(2-amino-3-fluoropropyl)-2-(1-(cyclopropylmethyl)-7-(2-(pyridin-4-yl)ethoxy)-1H-indol-2-yl)-3-methyl-3,5,6,7-tetrahydro-8H-imidazo[4,5-b][1,6]naphthyridin-8-one], 11 to 100 nM; with `CC(C(F)Oc1cccc2cc(-c3nc4cc5c(nc4n3C)CCN(C[C@H](N)CF)C5=O)n(CC3CC3)c12)n1ccnc1` (single isomer, unassigned) [Example 78c], 11 to 100 nM.
With `C[C@H](COc1cccc2cc(-c3nc4cc5c(nc4n3C)CCN(C[C@@H](C)N)C5=O)n(CC3CC3)c12)n1cnc(F)c1` [Example 81, 7-((R)-2-aminopropyl)-2-(1-(cyclopropylmethyl)-7-((R)-2-(4-fluoro-1H-imidazol-1-yl)propoxy)-1H-indol-2-yl)-3-methyl-3,5,6,7-tetrahydro-8H-imidazo[4,5-b][1,6]naphthyridin-8-one] the figure was not above 10 nM; with `CC(C(F)Oc1cccc2cc(-c3nc4cc5c(nc4n3C)CCN(C[C@H](N)CF)C5=O)n(CC3CC3)c12)n1ccnc1` (single isomer, unassigned) [Example 78a], 11 to 100 nM.
The result for `CC(COc1cccc2cc(-c3nc4cc5c(nc4n3C)CCN(C[C@H](N)CF)C5=O)n(CC3CC3)c12)c1cccnc1` (single isomer, unassigned) [Example 45a] reads not above 10 nM; that for `Cn1c(-c2cc3cccc(OCC(F)n4ccnc4)c3n2CC2CC2)nc2cc3c(nc21)CCN(C[C@H](N)CF)C3=O` (single isomer, unassigned) [Example 79a], 11 to 100 nM.
In turn, `C[C@@H](Cn1cncc1F)Oc1cccc2cc(-c3nc4cc5c(nc4n3C)CCN(C[C@H](N)CF)C5=O)n(CC3CC3)c12` [Example 68, 7-((S)-2-amino-3-fluoropropyl)-2-(1-(cyclopropylmethyl)-7-(((S)-1-(5-fluoro-1H-imidazol-1-yl)propan-2-yl)oxy)-1H-indol-2-yl)-3-methyl-3,5,6,7-tetrahydro-8H-imidazo[4,5-b][1,6]naphthyridin-8-one] gave a half-maximal inhibitory concentration (IC50) of 101 to 500 nM.
The result for `C[C@H](COc1nccc2cc(-c3nc4cc5c(nc4n3C)CCN(C[C@H](N)CF)C5=O)n(CC3CC3)c12)n1cnc(F)c1` [Example 83, 7-((S)-2-amino-3-fluoropropyl)-2-(1-(cyclopropylmethyl)-7-((R)-2-(4-fluoro-1H-imidazol-1-yl)propoxy)-1H-pyrrolo[2,3-c]pyridin-2-yl)-3-methyl-3,5,6,7-tetrahydro-8H-imidazo[4,5-b][1,6]naphthyridin-8-one] reads not above 10 nM; that for `CN1C[C@H](COc2cccc3cc(-c4nc5cc6c(nc5n4C)CCN(C[C@H](N)CF)C6=O)n(CC4CC4)c23)CS1(=O)=O` [Example 53, 7-((S)-2-amino-3-fluoropropyl)-2-(1-(cyclopropylmethyl)-7-(((R)-2-methyl-1,1-dioxidoisothiazolidin-4-yl)methoxy)-1H-indol-2-yl)-3-methyl-3,5,6,7-tetrahydro-8H-imidazo[4,5-b][1,6]naphthyridin-8-one], 101 to 500 nM; that for `CC(COc1cccc2cc(-c3nc4cc5c(nc4n3C)CCN(C[C@H](N)CF)C5=O)n(CC3CC3)c12)c1cccnc1` (single isomer, unassigned) [Example 45b], not above 10 nM.
